In publication PMC12390126, “Human Skin Permeation of Ethoxy- and Propoxypropanol Commonly Found in Water-Based Products” (Toxics, 2025):

Columns and labels:
[1] = design: method as in earlier work; conditions: cited from earlier work
[2] = In vitro static diffusion cell skin permeation (influence of water); assay type: in vitro ADME, human; conditions: static cells; 0, 25, 50 or 75% of water
Source text: Human abdominal full thickness skin was obtained as surgical waste from the Lausanne University Hospital (CHUV) and the Department of Musculoskeletal Medicine (DAL) Biobank, Switzerland, according to the Swiss ethics in the canton Vaud (CER-VD: Commission cantonal d’éthique de la recherche sur l’être humain, ethical protocol 264/12). The surgeon obtained written consent from the patients before the start of the operation. The collected skin was anonymized, and only sex and age were provided for this study. Human skin was obtained directly after the surgery and immediately dermatomed to a thickness of 800 µm (Acculan®II, B. Braun/Aesculap, Sempach, Switzerland) to account for any potential storage effects on its in vitro mass balance. The experiments were run with triplicate skin samples (n = 3) from three different donors giving a total of nine samples for each experiment. The skin samples used for this study were stored at −20 °C for up to four years. […]
The concentrations of parent compounds were quantified by gas-chromatography tandem mass spectrometry (GC-MS/MS). […] The limits of detections (LODs) for PGEE and PGPE were 0.045 µg/mL and 0.035 µg/mL, respectively, and the limits of quantifications (LOQs) for PGEE and for PGPE were 0.135 µg/mL and 0.105 µg/mL, respectively. […]

[3] = Workplace scenario: estimated internal dose and blood concentration after dermal exposure; design: species or system human; conditions: 8 h
Method: The cumulative amount of PGEE and PGPE in the receptor fluid (µg/cm^2, y-axis) was plotted separately over time (hours, x-axis), and the permeability rate (J), the lag time (Tlag), and the permeability coefficient (Kp) were determined from the generated permeability curve. J (µg/cm^2/h) was calculated as the slope of the steepest linear part of the curve (apparent steady state), and Tlag (h) as its x-axis intercept. Kp (cm/h) was calculated by dividing J with the chemical concentration applied to the skin when diluted in water and with the glycol ether’s density when applied neat. The maximal internal dose in the bloodstream was estimated using the permeability rate obtained for the experiments and calculated as follows:IDmean = J [µg/cm^2/h] × SA [cm^2] × t [h] × P,(1) where IDmean is the mean internal dose of PGEE or PGPE after skin exposure, J is the experimental permeability rate, SA represents the surface area exposed to the solvent, t is the time of exposure, and P represents the average percentage of PGEs in commercialized products. We used the J from the aqueous experiments because PGEs are mostly present in water-based products. The surface area exposed was set to 10.4 cm^2 for the hands alone, and 14.2 cm^2 when including the forearms. The total blood volume used for the blood concentration calculation was 5 L [29]. In Switzerland, paint products on the market for both professional and consumer uses contain, on average, 22.3% of PGEE and/or 5.9% of PGPE [17].
Recreating a workplace scenario, the mean internal dose after one workday for a worker in contact with products containing PGEE or PGPE was estimated based on our results. Mixing tasks are common in companies that use paint products, such as those in the construction and car repair industries. This task usually involves opening containers and mixing large quantities of paint. Workers’ hands, and occasionally forearms, are often contaminated by paint splashes and contact with various painting equipment. Based on our in vitro results and assuming dermal exposure only, after one 8 h workday, with a SA of 10.4 cm^2 and PGEs content of either 22.3% or 5.9%, the mean estimated internal dose for a worker performing a paint mixing task without wearing gloves is 8.3 mg of PGEE (see Equation (1)). This corresponds to a blood concentration of 1.7 mg/L. Under the same conditions, if the worker is exposed to products containing PGPE, the mean estimated internal dose after one workday is 0.9 mg, corresponding to a blood concentration of 0.2 mg/L. The addition of water to the mixture, for example, from perspiration or from the water-based product itself, increases the estimated internal dose to 19.9 mg (3.9 mg/L) for PGEE exposure and 4.1 mg (0.8 mg/L) for PGPE exposure. Some paint products may contain both PGEs mixed with other chemical substances; however, mixtures were not considered in this scenario. Further studies are necessary to investigate the effects of chemical mixtures on glycol ether skin permeation. Furthermore, PGEE and PGPE are volatile organic compounds, so workers can be exposed not only through direct skin contact but also via skin vapor absorption through the skin or inhalation. Therefore, the blood concentrations estimated in our workplace scenario would likely be higher under real working conditions involving all routes of absorption. Since no biological reference values are currently available for these compounds, it is not possible to estimate the potential risks associated with exposure at these blood concentrations. However, due to the high skin permeation of these compounds, workers and consumers must wear appropriate protective equipment to limit their exposure.

[4] = SA 10.4 cm^2, content 22.3% PGEE or 5.9% PGPE, blood volume 5 L, no added water
[5] = SA 10.4 cm^2, content 22.3% PGEE or 5.9% PGPE, dermal only, no added water
[6] = with addition of water to the mixture, SA 10.4 cm^2, 22.3% PGEE or 5.9% PGPE

| estimated blood concentration [3, 4] [mg/L] | mean estimated internal dose after one workday [3, 5] [mg] | mean estimated internal dose after one workday [3, 6] [mg] | estimated blood concentration ([3]; with addition of water to the mixture, SA 10.4 cm^2, blood volume 5 L) [mg/L] | SMILES | LogP [1] | mean cumulative amount in receptor fluid after 24 h: trend with percentage of water [2] |
| --- | --- | --- | --- | --- | --- | --- |
| 1.7 | 8.3 | 19.9 |  | CCOCC(C)O (centres unmarked) [PGEE] | 0.2 | increased with the percentage of water in the applied mixture |
| 0.2 | 0.9 | 4.1 | 0.8 | CCCOCC(C)O (centres unmarked) [PGPE, propoxypropanol] | 0.7 | reached a maximum when diluted with 25 % water (75:25), followed by a decrease at higher water concentrations |
